Converted amounts (≈) assume the structure as drawn.
How the values were obtained:
[1] = test system: Bacillus subtilis A.T.C.C. 6633; assay: standard disc plate microbiological assay; format: cell-based; details: one microgram of the standard; Difco Antibiotic Medium No. 5
Excerpt: The assay is a standard disc plate assay using Difco Antibiotic Medium No. 5 and Bacillus subtilis A.T.C.C. 6633 as the test organism. The physical conditions of the test are substantially those described for neomycin (Grove and Randall), Assay Methods of Antibiotics published by Medical Encyclopedia Incorporated (1955). The assay is run against a standard preparation of Antibiotic G-418 having a defined potency of 1000 mcg/mg. […] The standard antibiotic sulfate salt assays about 750 mcg/mg. against the standard antibiotic base.

[2] = test system: Pseudomonas aeruginosa No. 1; assay: In vivo protective activity in infected mice; set-up: species or system Carworth Farms CF-1 mice; details: S.C., dosed 1 hour after i.p. lethal infection, survival at 48 hours
Procedure: (§1) In Table VI is set forth in vivo antibacterial data obtained with Antibiotic G-418. The host animals used to obtain the data were Carworth Farms CF-1 mice weighing about 18-20 g. In vivo protection (PD50) is determined by injecting the mice (in groups of seven) intraperitoneally with a lethal dose of pathogenic bacteria. The mice are dosed with Antibiotic G-418 1 hour later. The non-protected controls die in 18-24 hours whereas the survivors are alive 48 hours after infection when the test is terminated. The data is analyzed by standard probit procedures to determine PD50 values with 95% confidence limits.

[3] = test system: Staphylococcus aureus St. M No. 1; assay: In vivo protective activity in infected mice; set-up: species or system Carworth Farms CF-1 mice; details: S.C., dosed 1 hour after i.p. lethal infection, survival at 48 hours
Procedure: as §1

[4] = test system: Staphylococcus aureus Gray; assay: In vivo protective activity in infected mice; set-up: species or system Carworth Farms CF-1 mice; details: dosed 1 hour after i.p. lethal infection, survival at 48 hours
Procedure: as §1

[5] = test system: Eschericia coli Sc.; assay: In vivo protective activity in infected mice; set-up: species or system Carworth Farms CF-1 mice; details: S.C., dosed 1 hour after i.p. lethal infection, survival at 48 hours
Procedure: as §1

[6] = test system: Staphylococcus aureus 32; assay: In Vitro Antibacterial Activity (Table V); format: cell-based; details: S. aureus 32, Mueller-Hinton Broth pH 7.2 - 7.5
Excerpt: (§2) In Table IV and Table V are set forth the in vitro antibacterial spectrum of Antibiotic G-418 against a variety of gram-positive and gram-negative bacteria using standard art recognized methods.
(§3) *Mueller -- Hinton Broth pH 7.2 - 7.5

[7] = test system: Escherichia coli 777; assay: In Vitro Antibacterial Activity (Table V); format: cell-based; details: E. coli 777, Mueller-Hinton Broth pH 7.2 - 7.5
Excerpt: as §2, §3

[8] = test system: Streptococcus sp. 30; assay: In Vitro Antibacterial Activity (Table V); format: cell-based; details: Mueller-Hinton Broth pH 7.2 - 7.5
Excerpt: as §2, §3

[9] = test system: Staphylococcus aureus Sm 1; assay: In Vitro Antibacterial Activity (Table V); format: cell-based; details: SM1, S. aureus Sm 1, Mueller-Hinton Broth pH 7.2 - 7.5
Excerpt: as §2, §3

[10] = test system: Pseudomonas aeruginosa 1236; assay: In Vitro Antibacterial Activity (Table V); format: cell-based; details: P. aeruginosa 1236, Mueller-Hinton Broth pH 7.2 - 7.5
Excerpt: as §2, §3

[11] = test system: Streptococcus sp. 16245; assay: In Vitro Antibacterial Activity (Table V); format: cell-based; details: Mueller-Hinton Broth pH 7.2 - 7.5
Excerpt: as §2, §3

[12] = test system: Proteus rettgeri 9250; assay: In Vitro Antibacterial Activity (Table V); format: cell-based; details: Providencia rettgeri, Mueller-Hinton Broth pH 7.2 - 7.5
Excerpt: as §2, §3

[13] = test system: Pseudomonas aeruginosa 20; assay: In Vitro Antibacterial Activity (Table V); format: cell-based; details: P. aeruginosa 20, Mueller-Hinton Broth pH 7.2 - 7.5
Excerpt: as §2, §3

[14] = test system: Pseudomonas aeruginosa 1262; assay: In Vitro Antibacterial Activity (Table V); format: cell-based; details: P. aeruginosa 1262, Mueller-Hinton Broth pH 7.2 - 7.5
Excerpt: as §2, §3

[15] = test system: Staphylococcus aureus 1257; assay: In Vitro Antibacterial Activity (Table V); format: cell-based; details: S. aureus 1257, Mueller-Hinton Broth pH 7.2 - 7.5
Excerpt: as §2, §3

[16] = test system: Proteus mirabilis 12453; assay: In Vitro Antibacterial Activity (Table V); format: cell-based; details: Mueller-Hinton Broth pH 7.2 - 7.5
Excerpt: as §2, §3

[17] = test system: Bacillus subtilis 6633; assay: In Vitro Antibacterial Activity (Table V); format: cell-based; details: B. subtilis 6633, Mueller-Hinton Broth pH 7.2 - 7.5
Excerpt: as §2, §3

[18] = test system: Streptococcus sp. 27; assay: In Vitro Antibacterial Activity (Table V); format: cell-based; details: Mueller-Hinton Broth pH 7.2 - 7.5
Excerpt: as §2, §3

[19] = test system: Staphylococcus aureus 12; assay: In Vitro Antibacterial Activity (Table V); format: cell-based; details: S. aureus 12, Mueller-Hinton Broth pH 7.2 - 7.5
Excerpt: as §2, §3

[20] = test system: Staphylococcus aureus 26; assay: In Vitro Antibacterial Activity (Table V); format: cell-based; details: S. aureus 26, Mueller-Hinton Broth pH 7.2 - 7.5
Excerpt: as §2, §3

[21] = test system: Pseudomonas aeruginosa 83; assay: In Vitro Antibacterial Activity (Table V); format: cell-based; details: P. aeruginosa 83, Mueller-Hinton Broth pH 7.2 - 7.5
Excerpt: as §2, §3

[22] = test system: Proteus morganii 8019; assay: In Vitro Antibacterial Activity (Table V); format: cell-based; details: Morganella morganii, Mueller-Hinton Broth pH 7.2 - 7.5
Excerpt: as §2, §3

[23] = test system: Streptococcus sp. 3045; assay: In Vitro Antibacterial Activity (Table V); format: cell-based; details: Mueller-Hinton Broth pH 7.2 - 7.5
Excerpt: as §2, §3

[24] = test system: Staphylococcus aureus 6; assay: In Vitro Antibacterial Activity (Table V); format: cell-based; details: S. aureus 6, Mueller-Hinton Broth pH 7.2 - 7.5
Excerpt: as §2, §3

[25] = test system: Escherichia coli 887; assay: In Vitro Antibacterial Activity (Table V); format: cell-based; details: E. coli 887, Mueller-Hinton Broth pH 7.2 - 7.5
Excerpt: as §2, §3

[26] = test system: Streptococcus sp. 6589; assay: In Vitro Antibacterial Activity (Table V); format: cell-based; details: Mueller-Hinton Broth pH 7.2 - 7.5
Excerpt: as §2, §3

[27] = test system: Staphylococcus aureus 23; assay: In Vitro Antibacterial Activity (Table V); format: cell-based; details: S. aureus 23, Mueller-Hinton Broth pH 7.2 - 7.5
Excerpt: as §2, §3

CN[C@@H]1[C@@H](O)[C@@H](O[C@@H]2[C@@H](O)[C@H](O[C@H]3O[C@H]([C@@H](C)O)[C@@H](O)[C@H](O)[C@H]3N)[C@@H](N)C[C@H]2N)OC[C@]1(C)O [Antibiotic G-418]
zone of inhibition [1]: 16.5 ± 1.5 mm | PD50 [2]: 5.0 mg/kg | PD50 [3]: 3.0 mg/kg | PD50 ([4]; Oral): 40 mg/kg | PD50 ([4]; S.C.): 2.5 mg/kg | PD50 [5]: 1.5 mg/kg | MIC [6]: 7.5 µg/mL (≈ 15.1 µM) | MIC [7]: 3 µg/mL (≈ 6.04 µM) | MIC [8]: 7.5 µg/mL (≈ 15.1 µM) | MIC [9]: 0.3 µg/mL (≈ 0.604 µM) | MIC [10]: 17.5 µg/mL (≈ 35.2 µM) | MIC [11]: 7.5 µg/mL (≈ 15.1 µM) | MIC [12]: 0.3 µg/mL (≈ 0.604 µM) | MIC [13]: 3 µg/mL (≈ 6.04 µM) | MIC [14]: 17.5 µg/mL (≈ 35.2 µM) | MIC [15]: 0.3 µg/mL (≈ 0.604 µM) | MIC [16]: 7.5 µg/mL (≈ 15.1 µM) | MIC [17]: 3 µg/mL (≈ 6.04 µM) | MIC [18]: 7.5 µg/mL (≈ 15.1 µM) | MIC [19]: 3 µg/mL (≈ 6.04 µM) | MIC [20]: 3 µg/mL (≈ 6.04 µM) | MIC [21]: 7.5 µg/mL (≈ 15.1 µM) | MIC [22]: 0.8 µg/mL (≈ 1.61 µM) | MIC [23]: 7.5 µg/mL (≈ 15.1 µM) | MIC [24]: 0.3 µg/mL (≈ 0.604 µM) | MIC [25]: 3 µg/mL (≈ 6.04 µM) | MIC [26]: 7.5 µg/mL (≈ 15.1 µM) | MIC [27]: 0.3 µg/mL (≈ 0.604 µM)
